Assay results reported in patent publication US20230265116A1, “DEGRADATION OF (EGFR) BY CONJUGATION OF EGFR INHIBITORS WITH E3 LIGASE LIGAND AND METHODS OF USE” (BEIGENE, LTD., priority 2020, published 2023).

Key:
[1] = tested on: EGFR Del19/T790M/C797S (BaF3-DTC cells); test: EGFR degradation HTRF assay, BaF3-DTC cells; type: cell-based; conditions: 16h treatment; for DTC Dmax (%): maximum percentage of degradation; for DC50: read-out: DTC DC50
Procedure, shortened: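 BaF3 (WT, Del19/T790M/C797S) and HCC827 cells exposed 16 h at 37 °C, 5% CO2 to compounds in 0.2% DMSO medium, 8 doses from 10 uM top, 5-fold steps. Lysates read by HTRF (665/620 nm); degradation % vs DMSO control, DC50 from four-parameter fit, Dmax as maximal degradation.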

[2] = target: T1, EGFR L858R/T790M/C797S (BaF3-LTC cells) (Homo sapiens, UniProt P00533, C797S/L858R/T790M); test: EGFR degradation HTRF assay, BaF3-LTC cells; type: cell-based; conditions: BaF3-LTC, 16h treatment; for Dmax: maximum percentage of degradation, read-out: LTC Dmax (%); for DC50: read-out: LTC DC50
T1 construct: expressed in transfected cells; host or cells: BaF3
Procedure, shortened: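 Cells treated 16 h at 37 °C, 5% CO2 in medium with 0.2% DMSO; top final concentration 10 uM, 5-fold dilution, 8 doses. Lysates read by HTRF (665/620 nm); degradation % versus DMSO high control, DC50 from four-parameter fit, Dmax as maximal degradation.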

T1 sequence (P00533 25-1210 T790M/C797S/L858R): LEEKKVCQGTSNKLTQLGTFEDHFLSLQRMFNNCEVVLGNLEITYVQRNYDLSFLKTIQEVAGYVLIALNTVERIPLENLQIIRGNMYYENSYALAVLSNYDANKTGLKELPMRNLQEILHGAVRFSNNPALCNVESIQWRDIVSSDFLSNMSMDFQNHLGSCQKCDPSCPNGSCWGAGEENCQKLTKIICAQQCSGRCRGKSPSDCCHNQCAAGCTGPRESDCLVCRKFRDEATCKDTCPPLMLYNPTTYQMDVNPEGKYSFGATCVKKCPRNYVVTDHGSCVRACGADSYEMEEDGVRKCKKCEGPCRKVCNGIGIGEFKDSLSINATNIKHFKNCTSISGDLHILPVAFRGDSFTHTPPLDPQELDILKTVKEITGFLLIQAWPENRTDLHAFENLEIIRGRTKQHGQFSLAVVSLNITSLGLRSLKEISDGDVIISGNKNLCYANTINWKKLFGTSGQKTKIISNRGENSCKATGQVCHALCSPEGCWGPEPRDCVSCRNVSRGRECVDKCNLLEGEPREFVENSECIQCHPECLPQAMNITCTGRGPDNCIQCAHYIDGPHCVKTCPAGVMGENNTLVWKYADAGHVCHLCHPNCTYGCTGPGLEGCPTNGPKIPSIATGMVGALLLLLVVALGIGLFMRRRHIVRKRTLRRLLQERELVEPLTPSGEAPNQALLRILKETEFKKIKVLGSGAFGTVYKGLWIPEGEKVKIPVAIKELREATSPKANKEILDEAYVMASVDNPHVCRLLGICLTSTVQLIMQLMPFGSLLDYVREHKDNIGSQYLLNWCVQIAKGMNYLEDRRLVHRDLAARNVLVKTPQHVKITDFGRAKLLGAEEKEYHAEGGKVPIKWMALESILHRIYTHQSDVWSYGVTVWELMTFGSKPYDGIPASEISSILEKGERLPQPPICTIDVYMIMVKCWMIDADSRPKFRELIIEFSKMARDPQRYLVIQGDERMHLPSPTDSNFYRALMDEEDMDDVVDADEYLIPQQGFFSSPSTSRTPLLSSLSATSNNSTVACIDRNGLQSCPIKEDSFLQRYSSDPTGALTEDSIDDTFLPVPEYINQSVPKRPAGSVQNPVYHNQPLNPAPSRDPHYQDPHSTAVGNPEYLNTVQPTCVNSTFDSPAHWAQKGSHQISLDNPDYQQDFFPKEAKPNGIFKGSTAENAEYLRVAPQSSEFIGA

SMILES	DTC Dmax (%) [1] [%]	DC50 [1] [µM]	Dmax [2] [%]	DC50 [2] [µM]
CCc1cc(Nc2ncc(Br)c(Nc3ccc4nc(C5CC5)ccc4c3P(C)(C)=O)n2)c(OC)cc1N1CCC(N2CCN(CC3CN(c4ccc5c(c4)CN(C4CCC(=O)NC4=O)C5=O)C3)CC2)CC1 (stereo not drawn) [Example 426, 3-(5-(3-((4-(1-(4-((5-bromo-4-((2-cyclopropyl-5-(dimethylphosphoryl)quinolin-6-yl)amino)pyrimidin-2-yl)amino)-2-ethyl-5-methoxyphenyl)piperidin-4-yl)piperazin-1-yl)methyl)azetidin-1-yl)-1-oxoisoindolin-2-yl)piperidine-2,6-dione]	91.88	0.00434	89	0.00667
CCc1cc(Nc2ncc(Br)c(Nc3ccc4nccnc4c3P(C)(C)=O)n2)c(OC)cc1N1CCC(N2CCN(C(=O)C3CN(c4ccc(C5CCC(=O)NC5=O)c(F)c4)C3)CC2)CC1 (stereo not drawn) [Example 228, 3-(4-(3-(4-(1-(4-((5-bromo-4-((5-(dimethylphosphoryl)quinoxalin-6-yl)amino)pyrimidin-2-yl)amino)-2-ethyl-5-methoxyphenyl)piperidin-4-yl)piperazine-1-carbonyl)azetidin-1-yl)-2-fluorophenyl)piperidine-2,6-dione]	79.14	0.00349	81.8	0.0198
CCc1cc(Nc2ncc(Br)c(Nc3ccc4nc(C)ccc4c3P(C)(C)=O)n2)c(OC)cc1N1CCC(N2CCN(C(=O)C(C)(C)CNc3cc(F)c(C4CCC(=O)NC4=O)c(F)c3)CC2)CC1 (stereo not drawn) [Example 706, 3-(4-((3-(4-(1-(4-((5-bromo-4-((5-(dimethylphosphoryl)-2-methylquinolin-6-yl)amino)pyrimidin-2-yl)amino)-2-ethyl-5-methoxyphenyl)piperidin-4-yl)piperazin-1-yl)-2,2-dimethyl-3-oxopropyl)amino)-2,6-difluorophenyl)piperidine-2,6-dione]	88.51	0.00217	90.8	0.00564
CCc1cc(Nc2ncc(Br)c(Nc3ccc4nc(CO)ccc4c3P(C)(C)=O)n2)c(OC)cc1N1CCC(N2CCN(CCc3cc(F)c(C4CCC(=O)NC4=O)c(F)c3)CC2)CC1 (stereo not drawn) [Example 329, 3-(4-(2-(4-(1-(4-((5-bromo-4-((5-(dimethylphosphoryl)-2-(hydroxymethyl)quinolin-6-yl)amino)pyrimidin-2-yl)amino)-2-ethyl-5-methoxyphenyl)piperidin-4-yl)piperazin-1-yl)ethyl)-2,6-difluorophenyl)piperidine-2,6-dione]	96.43	0.00172	92.4	0.0029
CCc1cc(Nc2ncc(Br)c(Nc3ccc4nccnc4c3P(C)(C)=O)n2)c(OC)cc1N1CCC(N2CCN(C(=O)C3CN(c4cccc(C5CCC(=O)NC5=O)c4)C3)CC2)CC1 (stereo not drawn) [Example 230, 3-(3-(3-(4-(1-(4-((5-bromo-4-((5-(dimethylphosphoryl)quinoxalin-6-yl)amino)pyrimidin-2-yl)amino)-2-ethyl-5-methoxyphenyl)piperidin-4-yl)piperazine-1-carbonyl)azetidin-1-yl)phenyl)piperidine-2,6-dione]	73.42	0.00911	72	0.0198
CCc1cc(Nc2ncc(Br)c(Nc3ccc4nccnc4c3P(C)(C)=O)n2)c(OC)cc1N1CCC(N2CCN(C(=O)C3CN(c4ccc5c(c4)CN(C4CCC(=O)NC4=O)C5=O)C3)CC2)CC1 (stereo not drawn) [Example 246, 3-(5-(3-(4-(1-(4-((5-bromo-4-((5-(dimethylphosphoryl)quinoxalin-6-yl)amino)pyrimidin-2-yl)amino)-2-ethyl-5-methoxyphenyl)piperidin-4-yl)piperazine-1-carbonyl)azetidin-1-yl)-1-oxoisoindolin-2-yl)piperidine-2,6-dione]	93.85	0.00151	91	0.00447
CCc1cc(Nc2ncc(Br)c(Nc3ccc4nccnc4c3P(C)(C)=O)n2)c(OC)cc1N1CCC(N2CCN(C(=O)CC3CCN(c4cc(F)c(C5CCC(=O)NC5=O)c(F)c4)CC3)CC2)CC1 (stereo not drawn) [Example 274, 3-(4-(4-(2-(4-(1-(4-((5-bromo-4-((5-(dimethylphosphoryl)quinoxalin-6-yl)amino)pyrimidin-2-yl)amino)-2-ethyl-5-methoxyphenyl)piperidin-4-yl)piperazin-1-yl)-2-oxoethyl)piperidin-1-yl)-2,6-difluorophenyl)piperidine-2,6-dione]	89.85	0.0159	96	0.0243
COc1cc(N2CCN(C3CN(CCC4CCN(c5cc(F)c(C6CCC(=O)NC6=O)c(F)c5)CC4)C3)CC2)c(C)cc1Nc1ncc(Br)c(Nc2ccc3nccnc3c2P(C)(C)=O)n1 (stereo not drawn) [Example 204, 3-(4-(4-(2-(3-(4-(4-((5-bromo-4-((5-(dimethylphosphoryl)quinoxalin-6-yl)amino)pyrimidin-2-yl)amino)-5-methoxy-2-methylphenyl)piperazin-1-yl)azetidin-1-yl)ethyl)piperidin-1-yl)-2,6-difluorophenyl)piperidine-2,6-dione]	91.45	0.0156	85.7	0.031
CCc1cc(Nc2ncc(Br)c(Nc3ccc4nc(C(C)C)ccc4c3P(C)(C)=O)n2)c(OC)cc1N1CCC(N2CCN(CCc3cc(F)c(C4CCC(=O)NC4=O)c(F)c3)CC2)CC1 (stereo not drawn) [Example 316, 3-(4-(2-(4-(1-(4-((5-bromo-4-((5-(dimethylphosphoryl)-2-isopropylquinolin-6-yl)amino)pyrimidin-2-yl)amino)-2-ethyl-5-methoxyphenyl)piperidin-4-yl)piperazin-1-yl)ethyl)-2,6-difluorophenyl)piperidine-2,6-dione]	89.57	0.00959	79	0.0487
CCc1cc(Nc2ncc(Br)c(Nc3ccc4nccnc4c3P(C)(C)=O)n2)c(OC)cc1N1CCC(N2CCN(C[C@H]3C[C@H](N(C)c4cccc(C5CCC(=O)NC5=O)c4)C3)CC2)CC1 (stereo partly drawn) [Example 307, 3-(3-(((1r,3r)-3-((4-(1-(4-((5-bromo-4-((5-(dimethylphosphoryl)quinoxalin-6-yl)amino)pyrimidin-2-yl)amino)-2-ethyl-5-methoxyphenyl)piperidin-4-yl)piperazin-1-yl)methyl)cyclobutyl)(methyl)amino)phenyl)piperidine-2,6-dione]	73.68	0.0433	87.4	0.0771
CCc1cc(Nc2ncc(Br)c(Nc3ccc4nc(C)ccc4c3P(C)(C)=O)n2)c(OC)cc1N1CCC(N2CCN(CC3CN(c4ccc(C5CCC(=O)NC5=O)c(C#N)c4)C3)CC2)CC1 (stereo not drawn) [Example 207, 5-(3-((4-(1-(4-((5-bromo-4-((5-(dimethylphosphoryl)-2-methylquinolin-6-yl)amino)pyrimidin-2-yl)amino)-2-ethyl-5-methoxyphenyl)piperidin-4-yl)piperazin-1-yl)methyl)azetidin-1-yl)-2-(2,6-dioxopiperidin-3-yl)benzonitrile]	90.41	0.0066	91.3	0.0132
CCc1cc(Nc2ncc(Br)c(Nc3ccc4nc(C5CC5)ccc4c3P(C)(C)=O)n2)c(OC)cc1N1CCC(N2CCN(CCc3cc(F)c(C4CCC(=O)NC4=O)c(F)c3)CC2)CC1 (stereo not drawn) [Example 427, 3-(4-(2-(4-(1-(4-((5-bromo-4-((2-cyclopropyl-5-(dimethylphosphoryl)quinolin-6-yl)amino)pyrimidin-2-yl)amino)-2-ethyl-5-methoxyphenyl)piperidin-4-yl)piperazin-1-yl)ethyl)-2,6-difluorophenyl)piperidine-2,6-dione]	93.94	0.0071	88.3	0.00861
CCc1cc(Nc2ncc(Br)c(Nc3ccc4nccnc4c3P(C)(C)=O)n2)c(OC)cc1N1CCC(N2CCN(C[C@H]3CCN(c4ccc5c(c4)C(=O)N(C4CCC(=O)NC4=O)C5=O)C3)CC2)CC1 (stereo partly drawn) [Example 232, 5-((R)-3-((4-(1-(4-((5-bromo-4-((5-(dimethylphosphoryl)quinoxalin-6-yl)amino)pyrimidin-2-yl)amino)-2-ethyl-5-methoxyphenyl)piperidin-4-yl)piperazin-1-yl)methyl)pyrrolidin-1-yl)-2-(2,6-dioxopiperidin-3-yl)isoindoline-1,3-dione]	86.38	0.0238	86.9	0.043
CCc1cc(Nc2ncc(Br)c(Nc3ccc4nccnc4c3P(C)(C)=O)n2)c(OC)cc1N1CCC(N2CCN(C(=O)C3CCN(c4ccc5nn(C6CCC(=O)NC6=O)cc5c4)CC3)CC2)CC1 (stereo not drawn) [Example 308, 3-(5-(4-(4-(1-(4-((5-bromo-4-((5-(dimethylphosphoryl)quinoxalin-6-yl)amino)pyrimidin-2-yl)amino)-2-ethyl-5-methoxyphenyl)piperidin-4-yl)piperazine-1-carbonyl)piperidin-1-yl)-2H-indazol-2-yl)piperidine-2,6-dione]	93.79	0.00501	91.8	0.0156
CCc1cc(Nc2ncc(Br)c(Nc3ccc4nc(C)ccc4c3P(C)(C)=O)n2)c(OC)cc1N1CCC(N2CCN(C3CC(c4ccc(NC5CCC(=O)NC5=O)cc4)C3)CC2)CC1 (stereo not drawn) [Example 709, 3-((4-(3-(4-(1-(4-((5-bromo-4-((5-(dimethylphosphoryl)-2-methylquinolin-6-yl)amino)pyrimidin-2-yl)amino)-2-ethyl-5-methoxyphenyl)piperidin-4-yl)piperazin-1-yl)cyclobutyl)phenyl)amino)piperidine-2,6-dione]	84.65	0.0198	87.9	0.0216
